Laboratory results as given in PubChem BioAssay (NCI).
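All cell lines were grown in 96-well plates and treated with compound for 48 hours. GI50 = concentration required for 50% inhibition of growth. TGI: concentration producing complete growth inhibition.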

Experiments:
Experiment in all cases: NCI anticancer screen, dose series, 48 h
LOX IMVI melanoma = tested on: LOX IMVI melanoma
MALME-3M melanoma = tested on: MALME-3M melanoma
NCI-H522 lung = tested on: NCI-H522 lung
SK-MEL-2 melanoma = tested on: SK-MEL-2 melanoma
A549 NSCLC = tested on: A549 NSCLC
HCT-15 colon = tested on: HCT-15 colon
CAKI-1 renal = tested on: CAKI-1 renal
OVCAR-8 ovarian = tested on: OVCAR-8 ovarian
SK-MEL-28 melanoma = tested on: SK-MEL-28 melanoma
U251 CNS = tested on: U251 CNS
CCRF-CEM leukemia = tested on: CCRF-CEM leukemia
UACC-62 melanoma = tested on: UACC-62 melanoma
OVCAR-5 ovarian = tested on: OVCAR-5 ovarian
T-47D breast = tested on: T-47D breast
M14 melanoma = tested on: M14 melanoma
NCI-H23 lung = tested on: NCI-H23 lung
MDA-MB-435 = tested on: MDA-MB-435
HCC-2998 colon = tested on: HCC-2998 colon
RPMI-8226 leukemia = tested on: RPMI-8226 leukemia
MCF7 breast = tested on: MCF7 breast
UO-31 renal = tested on: UO-31 renal
SF-268 CNS = tested on: SF-268 CNS
TK-10 renal = tested on: TK-10 renal
SW-620 colon = tested on: SW-620 colon
COLO 205 colon = tested on: COLO 205 colon
SNB-75 CNS = tested on: SNB-75 CNS
UACC-257 melanoma = tested on: UACC-257 melanoma
NCI-H226 lung = tested on: NCI-H226 lung
K-562 leukemia = tested on: K-562 leukemia

CN(C)C(=O)c1cc2cnc(Nc3ccc(-c4csc5c(=S)cc(N6CCOCC6)oc45)cc3)nc2n1C1CCCC1
GI50 (LOX IMVI melanoma): 355 nM | TGI (LOX IMVI melanoma): 2540 nM | GI50 (MALME-3M melanoma): 778 nM | TGI (MALME-3M melanoma): 31100 nM | GI50 (NCI-H522 lung): 1300 nM | TGI (NCI-H522 lung): > 50000 nM | GI50 (SK-MEL-2 melanoma): 971 nM | TGI (SK-MEL-2 melanoma): 2840 nM | GI50 (A549 NSCLC): 823 nM | TGI (A549 NSCLC): 5150 nM | GI50 (HCT-15 colon): 344 nM | TGI (HCT-15 colon): > 50000 nM | GI50 (CAKI-1 renal): 368 nM | TGI (CAKI-1 renal): > 13300 nM | GI50 (OVCAR-8 ovarian): 744 nM | TGI (OVCAR-8 ovarian): > 50000 nM | GI50 (SK-MEL-28 melanoma): 752 nM | TGI (SK-MEL-28 melanoma): > 50000 nM | GI50 (U251 CNS): 481 nM | TGI (U251 CNS): > 50000 nM | GI50 (CCRF-CEM leukemia): 274 nM | TGI (CCRF-CEM leukemia): > 9840 nM | GI50 (UACC-62 melanoma): 234 nM | TGI (UACC-62 melanoma): 1720 nM | GI50 (OVCAR-5 ovarian): 485 nM | TGI (OVCAR-5 ovarian): > 50000 nM | GI50 (T-47D breast): 198 nM | TGI (T-47D breast): > 50000 nM | GI50 (M14 melanoma): 838 nM | TGI (M14 melanoma): > 50000 nM | GI50 (NCI-H23 lung): 699 nM | TGI (NCI-H23 lung): > 19500 nM | GI50 (MDA-MB-435): 687 nM | TGI (MDA-MB-435): > 50000 nM | GI50 (HCC-2998 colon): 932 nM | TGI (HCC-2998 colon): > 50000 nM | GI50 (RPMI-8226 leukemia): 252 nM | TGI (RPMI-8226 leukemia): 1450 nM | GI50 (MCF7 breast): 235 nM | TGI (MCF7 breast): 2440 nM | GI50 (UO-31 renal): 227 nM | TGI (UO-31 renal): 1540 nM | GI50 (SF-268 CNS): 693 nM | TGI (SF-268 CNS): > 50000 nM | GI50 (TK-10 renal): 987 nM | TGI (TK-10 renal): > 50000 nM | GI50 (SW-620 colon): 604 nM | TGI (SW-620 colon): > 50000 nM | GI50 (COLO 205 colon): 214 nM | GI50 (SNB-75 CNS): 314 nM | TGI (SNB-75 CNS): 2040 nM | GI50 (UACC-257 melanoma): 1240 nM | TGI (UACC-257 melanoma): > 14700 nM | GI50 (NCI-H226 lung): 405 nM | TGI (NCI-H226 lung): > 11900 nM | GI50 (K-562 leukemia): 939 nM | TGI (K-562 leukemia): > 50000 nM
